Results reported in patent US4886810A, “Quinoline derivatives, pharmaceutical composition and method of use” (Dainippon Pharmaceutical Co., Ltd., priority 1986, dated 1989).
Converted amounts (≈) assume the structure as drawn. Read-outs that look alike come from different tables or passages of the source.

Legend:
P. aeruginosa 12 = assay: microbe, parasite or virus in culture; type: cell-based
S. pyogenes Cook = assay: microbe, parasite or virus in culture; type: cell-based
M. lacunata P-7102 = assay: microbe, parasite or virus in culture; type: cell-based
Flavobacterium sp P-7201 = assay: microbe, parasite or virus in culture; type: cell-based; conditions: P7201, 20 h, read-out: minimum inhibitory concentrations (MIC)
B. abortus kusayanagi = assay: microbe, parasite or virus in culture; type: cell-based; conditions: Brucella abortus, 20 h; read-out: minimum inhibitory concentrations (MIC)
E. coli P-51213 = assay: microbe, parasite or virus in culture; type: cell-based
S. aureus No. 80 = assay: microbe, parasite or virus in culture; type: cell-based
S. aureus No. 50774 = assay: microbe, parasite or virus in culture; type: cell-based
S. aureus 209P JC-1 = assay: microbe, parasite or virus in culture; type: cell-based; conditions: Staphylococcus aureus, 20 h, read-out: minimum inhibitory concentrations (MIC)
S. pyogenes A 65 = assay: microbe, parasite or virus in culture; type: cell-based
M. bovis P-7101 = assay: microbe, parasite or virus in culture; type: cell-based; conditions: Mycobacterium tuberculosis variant bovis, P7101, 20 h; read-out: minimum inhibitory concentrations (MIC)
male mice (ddY) = assay: Acute oral toxicity in mice (Table 3); conditions: mouse, in vivo
in vivo [1] = conditions: mouse, po
[2] = tested on: Gram-positive and Gram-negative bacteria; assay: In vitro antibacterial activity, overall; type: cell-based
Procedure: The numbers in the table show minimum inhibitory concentrations (MIC) (μg/ml), calculated for free base. The minimum inhibitory concentration was determined by the twofold agar-dilution method, which was recommended by Japan Society of Chemotherapy (Chemotherapy, 29(1), (1981)), using Muller-Hinton agar. One loopful of an overnight culture of test organisms in Mueller-Hinton broth was inoculated onto 10-ml drug-containing agar layers in petri dishes. Bacterial inocula contained approximately 10^6 colonyl-forming units. Bacterial growth was observed after 20-hour incubation at 37° C. The MIC was defined as the lowest drug concentration which prevented visible bacterial growth.

[3] = tested on: Staphylococcus aureus 50774; assay: animal or person; type: in vivo; conditions: for ED50: Staphylococcus aureus, 50774, in Mus musculus, po, 336 h, read-out: median effective dose (ED50)
[4] = tested on: Pseudomonas aeruginosa 12; assay: animal or person; type: in vivo; conditions: for ED50: Pseudomonas aeruginosa, 12, in Mus musculus, po, 168 h, 7 days, read-out: median effective dose (ED50); for efficacy against systemic infection by P. aeruginosa 12 compared with Compound A (in words): in vivo
[5] = tested on: Gram-positive and Gram-negative bacteria; assay: In vivo efficacy against systemic infections, overall; conditions: for therapeutic effect on infections by Gram-positive and Gram-negative bacteria (in words): in vivo; for therapeutic effect compared with Compounds A and B (in words): versus Compounds A and B, systemic infections, mice
Procedure: Compounds were each dissolved in deionized water. Each of the solutions was orally administered to mice infected with each of the test organisms under the conditions shown hereinbelow, and the median effective dose (ED 50) was calculated by […]. The numerals in the table show ED50 (mg/kg) value, calculated for free base.
Mice: Male mice (ddY-S) weighing about 20 g Infection:
Twice, immediately and 6 hours after infection.
For 14 days in case of Staphylococcus aureus 50774.
For 7 days in case of other organisms.

[6] = tested on: Streptococcus pyogenes A65; assay: animal or person; type: in vivo; conditions: A65, in Mus musculus, po, 168 h, 7 days, read-out: median effective dose (ED50)
in vivo [7] = assay: in vivo; design: species or system mice; conditions: mouse; for dose excreted at 24 h: 5 mg/kg
[8] = Pseudomonas aeruginosa, 12, 20 h; read-out: minimum inhibitory concentrations (MIC)
[9] = Streptococcus pyogenes, 20 h; read-out: minimum inhibitory concentrations (MIC)
[10] = 20 h; read-out: minimum inhibitory concentrations (MIC)
[11] = Escherichia coli, P51213, 20 h; read-out: minimum inhibitory concentrations (MIC)
[12] = Staphylococcus aureus, NO.80, 20 h; read-out: minimum inhibitory concentrations (MIC)
[13] = Staphylococcus aureus, NO.50774, 20 h; read-out: minimum inhibitory concentrations (MIC)
[14] = Streptococcus pyogenes, A65, 20 h; read-out: minimum inhibitory concentrations (MIC)

SMILES	MIC (P. aeruginosa 12; [8])	MIC (S. pyogenes Cook; [9])	MIC (M. lacunata P-7102; [10])	MIC (Flavobacterium sp P-7201)	MIC (B. abortus kusayanagi)	MIC (E. coli P-51213; [11])	MIC (S. aureus No. 80; [12])	MIC (S. aureus No. 50774; [13])	MIC (S. aureus 209P JC-1)	MIC (S. pyogenes A 65; [14])	MIC (M. bovis P-7101)	toxicity (in words) (male mice (ddY))	LD50 at 168 h (in vivo [1])	antibacterial activity against Gram-positive and Gram-negative bacteria (in words) [2]	ED50 [4]	ED50 [6]	further results
C[C@H]1CN(c2c(F)c(N)c3c(=O)c(C(=O)O)cn(C4CC4)c3c2F)C[C@H]1CN.Cl (relative stereo) [Compound 6, 5-amino-7-(cis-3-aminomethyl-4-methyl-1-pyrrolidinyl)-1-cyclopropyl-6,8-difluoro-1,4-dihydro-4-oxoquinoline-3-carboxylic acid hydrochloride]	0.1 µg/mL	0.0063 µg/mL	0.2 µg/mL	0.025 µg/mL	0.39 µg/mL	0.0125 µg/mL	0.0031 µg/mL	0.0031 µg/mL	< 0.0031 µg/mL	0.0125 µg/mL	0.2 µg/mL	–	–	–	–	–	–
C[C@H]1CN(c2c(F)c(F)c3c(=O)c(C(=O)O)cn(C4CC4)c3c2F)C[C@H]1N (relative stereo) [Compound 2, 1-cyclopropyl-5,6,8-trifluoro-7-(cis3-amino-4-methyl-1-pyrrolidinyl)-1,4-dihydro-4-oxoquinoline-3-carboxylic acid]	0.39 µg/mL (≈ 1.02 µM)	0.2 µg/mL (≈ 0.524 µM)	0.78 µg/mL (≈ 2.05 µM)	0.2 µg/mL (≈ 0.524 µM)	0.78 µg/mL (≈ 2.05 µM)	0.05 µg/mL (≈ 0.131 µM)	0.05 µg/mL (≈ 0.131 µM)	0.05 µg/mL (≈ 0.131 µM)	0.05 µg/mL (≈ 0.131 µM)	0.39 µg/mL (≈ 1.02 µM)	0.39 µg/mL (≈ 1.02 µM)	low oral toxicity	> 2000 mg/kg	very high antibacterial activities	–	–	–
Cl.O=C(O)c1cn(C2CC2)c2cc(N3CCNCC3)c(F)cc2c1=O [Compound B, 1-cyclopropyl-6-fluoro-7-(1-piperazinyl)-1,4-dihydro-4-oxoquinoline-3carboxylic acid hydrochloride, reference compound]	–	–	–	0.39 µg/mL	–	–	–	–	0.1 µg/mL	–	–	–	–	–	–	–	MIC (P. aeruginosa 12; Pseudomonas aeruginosa, 12, 20 h, read-out: minimum inhibitory concentrations (MIC)): 0.1 µg/mL; MIC (S. pyogenes Cook; Streptococcus pyogenes, 20 h, read-out: minimum inhibitory concentrations (MIC)): 0.2 µg/mL; MIC (M. lacunata P-7102; 20 h, read-out: minimum inhibitory concentrations (MIC)): 6.25 µg/mL; MIC (E. coli P-51213; Escherichia coli, P51213, 20 h, read-out: minimum inhibitory concentrations (MIC)): 0.05 µg/mL; MIC (S. aureus No. 80; Staphylococcus aureus, NO.80, 20 h, read-out: minimum inhibitory concentrations (MIC)): 0.39 µg/mL; MIC (S. aureus No. 50774; Staphylococcus aureus, NO.50774, 20 h, read-out: minimum inhibitory concentrations (MIC)): 0.1 µg/mL; MIC (S. pyogenes A 65; Streptococcus pyogenes, A65, 20 h, read-out: minimum inhibitory concentrations (MIC)): 0.2 µg/mL; ED50 [3]: 11.7 mg/kg
CCC1(N)CCN(c2c(F)c(N)c3c(=O)c(C(=O)O)cn(C4CC4)c3c2F)C1 (stereo not shown) [Compound 4, 5-amino-7-(3-amino-3-ethyl-1-pyrrolidinyl)-1-cyclopropyl-6,8-difluoro-1,4-dihydro-4-oxoquinoline-3-carboxylic acid]	0.2 µg/mL (≈ 0.51 µM)	0.1 µg/mL (≈ 0.255 µM)	0.78 µg/mL (≈ 1.99 µM)	0.05 µg/mL (≈ 0.127 µM)	0.39 µg/mL (≈ 0.994 µM)	0.05 µg/mL (≈ 0.127 µM)	0.0063 µg/mL (≈ 0.0161 µM)	0.025 µg/mL (≈ 0.0637 µM)	0.025 µg/mL (≈ 0.0637 µM)	0.2 µg/mL (≈ 0.51 µM)	0.2 µg/mL (≈ 0.51 µM)	low oral toxicity	> 2000 mg/kg	very high antibacterial activities	–	–	–
CC1(N)CCN(c2c(F)c(N)c3c(=O)c(C(=O)O)cn(C4CC4)c3c2F)C1 (stereo not shown) [Compound 3, 5-amino-7-(3-amino-3-methyl-1-pyrrolidinyl)-1-cyclopropyl-6,8-difluoro-1,4-dihydro-4-oxoquinoline-3-carboxylic acid]	0.2 µg/mL (≈ 0.529 µM)	0.1 µg/mL (≈ 0.264 µM)	0.78 µg/mL (≈ 2.06 µM)	0.1 µg/mL (≈ 0.264 µM)	0.39 µg/mL (≈ 1.03 µM)	0.05 µg/mL (≈ 0.132 µM)	0.0063 µg/mL (≈ 0.0166 µM)	0.025 µg/mL (≈ 0.0661 µM)	0.025 µg/mL (≈ 0.0661 µM)	0.1 µg/mL (≈ 0.264 µM)	0.2 µg/mL (≈ 0.529 µM)	low oral toxicity	> 2000 mg/kg	very high antibacterial activities	1.68 mg/kg	9.14 mg/kg	efficacy against systemic infection by P. aeruginosa 12 compared with Compound A (in words) [4]: better efficacy; therapeutic effect on infections by Gram-positive and Gram-negative bacteria (in words) [5]: potent therapeutic effects; therapeutic effect compared with Compounds A and B (in words) [5]: better therapeutic effects
CCn1cc(C(=O)O)c(=O)c2c(N)c(F)c(N3CCNCC3)c(F)c21 [Compound A, 5-amino-1-ethyl-6,8-difluoro-7-(1piperazinyl)-1,4-dihydro-4-oxoquinoline-3-carboxylic acid, reference compound]	0.78 µg/mL (≈ 2.21 µM)	6.25 µg/mL (≈ 17.7 µM)	6.25 µg/mL (≈ 17.7 µM)	0.78 µg/mL (≈ 2.21 µM)	3.13 µg/mL (≈ 8.88 µM)	0.39 µg/mL (≈ 1.11 µM)	0.2 µg/mL (≈ 0.568 µM)	0.2 µg/mL (≈ 0.568 µM)	0.2 µg/mL (≈ 0.568 µM)	12.5 µg/mL (≈ 35.5 µM)	3.13 µg/mL (≈ 8.88 µM)	–	–	–	15 mg/kg	> 25 mg/kg	–
C[C@@H]1CN(c2c(F)c(N)c3c(=O)c(C(=O)O)cn(C4CC4)c3c2F)C[C@H]1N (relative stereo) [Compound 5, 5-amino-7-(trans-3-amino-4-methyl-1-pyrrolidinyl)-1-cyclopropyl-6,8-difluoro-1,4-dihydro-4-oxoquinoline-3-carboxylic acid]	0.1 µg/mL (≈ 0.264 µM)	0.1 µg/mL (≈ 0.264 µM)	0.39 µg/mL (≈ 1.03 µM)	0.05 µg/mL (≈ 0.132 µM)	0.2 µg/mL (≈ 0.529 µM)	0.025 µg/mL (≈ 0.0661 µM)	0.0125 µg/mL (≈ 0.033 µM)	0.0125 µg/mL (≈ 0.033 µM)	0.025 µg/mL (≈ 0.0661 µM)	0.1 µg/mL (≈ 0.264 µM)	0.1 µg/mL (≈ 0.264 µM)	low oral toxicity	> 2000 mg/kg	very high antibacterial activities	–	–	–
CC1CN(c2c(F)c(F)c3c(=O)c(C(=O)O)cn(C4CC4)c3c2F)CCN1 (stereo not shown) [Compound 1, 1-cyclopropyl-5,6,8-trifluoro-7-(3-methyl-1-piperazinyl)-1,4-dihydro-4-oxoquinoline-3-carboxylic acid]	0.78 µg/mL (≈ 2.05 µM)	1.56 µg/mL (≈ 4.09 µM)	6.25 µg/mL (≈ 16.4 µM)	0.39 µg/mL (≈ 1.02 µM)	3.13 µg/mL (≈ 8.21 µM)	0.1 µg/mL (≈ 0.262 µM)	0.2 µg/mL (≈ 0.524 µM)	0.2 µg/mL (≈ 0.524 µM)	0.2 µg/mL (≈ 0.524 µM)	1.56 µg/mL (≈ 4.09 µM)	1.56 µg/mL (≈ 4.09 µM)	low oral toxicity	> 2000 mg/kg	very high antibacterial activities	2.46 mg/kg	17.3 mg/kg	efficacy against systemic infection by P. aeruginosa 12 compared with Compound A (in words) [4]: better efficacy; dose excreted at 24 h (in vivo [7]; feces, iv, read-out: Feces recovery): 14%; dose excreted at 24 h (in vivo [7]; feces, po, read-out: Feces recovery): 22.3%; absorbability (in words) (in vivo [7]; in vivo): very good oral absorbability; metabolic stability (in words) (in vivo [7]; in vivo): good metabolic stability; total recovery (in words) (in vivo [7]; in vivo): High total recovery; urinary excretion (in words) (in vivo [7]; in vivo): very good; metabolic stability and oral absorbability compared with Compound B (in words) (in vivo [7]; in vivo, po): superior to Compound B in metabolic stability and oral absorbability; dose excreted at 24 h (in vivo [7]; urine and feces, iv, read-out: Total recovery): 77.6%; dose excreted at 24 h (in vivo [7]; urine and feces, po, read-out: Total recovery): 85.7%; dose excreted at 24 h (in vivo [7]; urine, iv, read-out: Urine recovery): 63.6%; dose excreted at 24 h (in vivo [7]; urine, po, read-out: Urine recovery): 63.4%; therapeutic effect on infections by Gram-positive and Gram-negative bacteria (in words) [5]: potent therapeutic effects; therapeutic effect compared with Compounds A and B (in words) [5]: better therapeutic effects; ED50 ([3]; 14 days): 2.4 mg/kg; efficacy against systemic infection by S. aureus 50774 compared with Compound B (in words) ([3]; in vivo): better efficacy
